This passage reports EC50 results from US20090029983A1, “NOVEL HETEROCYCLIC COMPOUNDS HAVING ANTI-HBV ACTIVITY” (priority 2005, published 2009).

For the assay, the system named is HBV. The assay can be described thus: HBV screening assay (viral DNA in baculovirus-HBV transduced HepG2 cells). Type of assay: cell-based. The protocol: HepG2 cells were transduced using a baculovirus to deliver the HBV genome essentially as previously described (Delaney et al. in Hepatology 1998; 28: 1134-1146). Transduced cells were cultured in supplemented EMEM media with 10% fetal bovine serum in a 5% CO2 incubator at 37° C. for three days in the presence of test compounds. The cells were lysed in a buffer containing 0.5% NP-40 and […] proteinase K. A solid-phase hybridization was performed to capture the viral DNA and to label the target DNA with Digoxigenin-labeled DNA probes. The viral DNA was detected by ELISA, using horseradish peroxidase-conjugated anti-digoxigenin antibodies.
The EC50 values were determined using ExcelFit software from the inhibition values of a titration curve for each compound. For CC50 determinations, the same titration of compounds was co-cultured with non-transduced HepG2 for three days under the conditions described above. The Promega CellTiter 96 Aqueous One Solution Cell Proliferation Assay was used to measure cell proliferation/viability. The CC50 values were determined using ExcelFit software from the inhibition values of the titration curve for each compound.

Setting [1] is: Hepatitis B virus, HepG2, 72 h, read-out: EC50 (antiviral activity), HBV-transduced HepG2 cells, three days with compound, viral DNA by ELISA.

Where two headings read alike, the source gives them in different places. A value given as a limit tells only on which side of the number the result lay.

As for `CCOC(=O)N1CCC(NC(=O)CC2CCc3c2nc2sc(C(N)=O)c(N)c2c3-c2cccs2)CC1` (stereo not shown) [Compound 54, 4-[2-(3-Amino-2-carbamoyl-4-thiophen-2-yl-6,7-dihydro-5H-cyclopenta[b]thiano[3,2-e]pyridin-7-yl)-acetylamino]-piperidine-1-carboxylic acid ethyl ester], the EC50 under setting [1] was above 10 µM.

Consider `CN1CCCC1CCNC(=O)CC1CCc2c1nc1sc(C(N)=O)c(N)c1c2-c1cccs1` (stereo not shown) [Compound 55, 3-Amino-7-{[2-(1-methyl-pyrrolidin-2-yl)-ethylcarbamoyl]-methyl}-4-thiophen-2-yl-6,7-dihydro-5H-cyclopenta[b]thieno[3,2-e]pyridine-2-carboxylic acid amide], for which, under setting [1], the EC50 was above 10 µM. As to `CCOC(=O)C1CCN(C(=O)CC2CCc3c2nc2sc(C(N)=O)c(N)c2c3-c2cccs2)CC1` (stereo not shown) [Compound 56, 1-[2-(3-Amino-2-carbamoyl-4-thiophen-2-yl-6,7-dihydro-5H-cyclopenta[b]thieno[3,2-e]pyridin-7-yl)-acetyl]-piperidine-4-carboxylic acid ethyl ester], the EC50 under setting [1] was above 10 µM.

On to `NC(=O)c1sc2nc3c(c(-c4cccs4)c2c1N)CCC3CC(=O)NCCCN1CCOCC1` (stereo not shown) [Compound 57, 3-Amino-7-[(3-morpholin-4-yl-propylcarbamoyl)-methyl]-4-thiophen-2-yl-6,7-dihydro-5H-cyclopenta[b]thiano[3,2-e]pyridine-2-carboxylic acid amide], for which the EC50 under setting [1] is above 10 µM.

In the case of `CC1CCCCN1CCCNC(=O)CC1CCc2c1nc1sc(C(N)=O)c(N)c1c2-c1cccs1` (stereo not shown) [Compound 58, 3-Amino-7-{[3-(2-methyl-piperidin-1-yl)-propylcarbamoyl]-methyl}-4-thiophen-2-yl-6,7-dihydro-5H-cyclopenta[b]thieno[3,2-e]pyridine-2-carboxylic acid amide], under setting [1], the EC50 was above 10 µM. `CCCCCCC1CCc2c1nc1sc(C(N)=O)c(N)c1c2-c1cccs1` (stereo not shown) [Compound 59, 3-Amino-7-hexyl-4-thiophen-2-6,7-dihydro-5H-cyclopenta[b]thieno[3,2-e]pyridine-2-carboxylic acid amide]: the EC50 under setting [1] is above 10 µM. For `CCCCCCCC1CCc2c1nc1sc(C(N)=O)c(N)c1c2-c1cccs1` (stereo not shown) [Compound 60, 3-Amino-7-heptyl-4-thiophen-2-yl-6,7-dihydro-5H-cyclopenta[b]thieno[3,2-e]pyridine-2-carboxylic acid amide], the EC50 under setting [1] is above 10 µM. Consider `NC(=O)c1sc2nc3c(c(-c4cccs4)c2c1N)CCC3C1CCCC1` (stereo not shown) [Compound 61, 3-Amino-7-cyclopentyl-4-thiophen-2-yl-6,7-dihydro-5H-cyclopenta[b]thieno[3,2-e]pyridine-2-carboxylic acid amide], for which the EC50 under setting [1] is 1 to 10 µM. On the same count and under the same terms, next, `N#CCCC1CCCc2c1nc1sc(C(N)=O)c(N)c1c2-c1cccs1` (stereo not shown) [Compound 62, 3-Amino-8-(2-cyano-ethyl)-4-thiophen-2-yl-5,6,7,8-tetrahydro-thieno[2,3-b]quinoline-2-carboxylic acid amide]: above 10 µM; `CC(C)CC1CCCc2c1nc1sc(C(N)=O)c(N)c1c2-c1cccs1` (stereo not shown) [Compound 63, 3-Amino-8-isobutyl-4-thiophen-2-yl-5,6,7,8-tetrahydro-thieno[2,3-b]quinoline-2-carboxylic acid amide]: 1 to 10 µM. Still for that read-out and setting: next, `NC(=O)c1sc2nc3c(c(-c4cccs4)c2c1N)CCCC3Cc1ccccc1` (stereo not shown) [Compound 64, 3-Amino-8-benzyl-4-thiophen-2-yl-5,6,7,8-tetrahydro-thieno[2,3-b]uinoline-2-carboxylic acid amide]: above 10 µM; `CCCC1CCCc2c1nc1sc(C(N)=O)c(N)c1c2-c1cccs1` (stereo not shown) [Compound 65, 3-Amino-8-propyl-4-thiophen-2-yl-5,6,7,8-tetrahydro-thieno[2,3-b]quinoline-2-carboxylic acid amide]: 1 to 10 µM.

As to `NC(=O)c1sc2nc3c(c(-c4cccs4)c2c1N)CCCC3c1ccccc1` (stereo not shown) [Compound 66, 3-Amino-8-phenyl-4-thiophen-2-yl-5,6,7,8-tetrahydro-thieno[2,3-b]quinoline-2-carboxylic acid amide], the EC50 under setting [1] lay in the range of 1 to 10 µM. Same read-out and setting: next, `COc1cccc(C2CCCc3c2nc2sc(C(N)=O)c(N)c2c3-c2cccs2)c1` (stereo not shown) [Compound 67, 3-Amino-8-(3-methoxy-phenyl)-4-thiophen-2-yl-5,6,7,8-tetrahydro-thieno[2,3-b]quinoline-2-carboxylic acid amide]: above 10 µM. Still for that read-out and setting: next, `NC(=O)c1sc2nc3c(c(-c4cccs4)c2c1N)CCCC3C1CCCCC1` (stereo not shown) [Compound 68, 3-Amino-8-cyclohexyl-4-thiophen-2-yl-5,6,7,8-tetrahydro-thieno[2,3-b]quinoline-2-carboxylic acid amide]: above 10 µM; `COC1CCCc2c1nc1sc(C(N)=O)c(N)c1c2-c1cccs1` (stereo not shown) [Compound 69, 3-Amino-8-methoxy-4-thiophen-2-yl-5,6,7,8-tetrahydro-thieno[2,3-b]quinoline-2-carboxylic acid amide]: below 1 µM; `C=CCC1CCCc2c1nc1sc(C(N)=O)c(N)c1c2-c1cccs1` (stereo not shown) [Compound 70, 8-Allyl-3-amino-4-thiophen-2-yl-5,6,7,8-tetrahydro-thieno[2,3-b]quinoline-2-carboxylic acid amide]: 1 to 10 µM. Take `CCOC(=O)CC1CCCc2c1nc1sc(C(N)=O)c(N)c1c2-c1cccs1` (stereo not shown) [Compound 71, 3-Amino-8-carbethoxymethyl-4-thiophen-2-yl-5,6,7,8-tetrahydro-thieno[2,3-b]quinoline-2-carboxylic acid amide]: the EC50 under setting [1] was above 10 µM. On the same count and under the same terms, next, `CC1CCc2nc3sc(C(N)=O)c(N)c3c(-c3cccs3)c2C1` (stereo not shown) [Compound 72, 3-Amino-6-methyl-4-thiophen-2-yl-5,6,7,8-tetrahydro-thieno[2,3-b]quinoline-2-carboxylic acid amide]: above 10 µM; `CCC1CCc2nc3sc(C(N)=O)c(N)c3c(-c3cccs3)c2C1` (stereo not shown) [Compound 73, 3-Amino-6-ethyl-4-thiophen-2-yl-5,6,7,8-tetrahydro-thieno[2,3-b]quinoline-2-carboxylic acid amide]: above 10 µM. For the compound `CC1CCc2c(nc3sc(C(N)=O)c(N)c3c2-c2cccs2)C1` (stereo not shown) [Compound 74, 3-Amino-7-methyl-4-thiophen-2-yl-5,6,7,8-tetrahydro-thieno[2,3-b]quinoline-2-carboxylic acid amide], the EC50 under setting [1] is above 10 µM. Consider `Cc1ccsc1-c1c2c(nc3sc(C(N)=O)c(N)c13)CCCC2=O` [Compound 75, 3-Amino-4-(3-methyl-thiophen-2-yl)-5-oxo-5,6,7,8-tetrahydro-thieno[2,3-b]quinoline-2-carboxylic acid amide], for which the EC50 under setting [1] is below 1 µM. Turning to `NC(=O)c1sc2nc3c(c(-c4cccs4)c2c1N)C(=O)CCC3` [Compound 76, 3-Amino-4-(thiophen-2-yl)-5-oxo-5,6,7,8-tetrahydro-thieno[2,3-b]quinoline-2-carboxylic acid amide], the EC50 under setting [1] lay within 1 to 10 µM. For the compound `NC(=O)c1sc2nc3c(c(-c4ccc(Cl)cc4)c2c1N)C(=O)CCC3` [Compound 77, 3-Amino-4-(4-chloro-phenyl)-5-oxo-5,6,7,8-tetrahydro-thieno[2,3-b]quinoline-2-carboxylic acid amide], under setting [1], the EC50 is above 10 µM. Same read-out and setting: next, `NC(=O)c1sc2nc3c(c(-c4cccs4)c2c1N)CN(C(=S)Nc1ccccc1)C3` [Compound 79, 3-Amino-6-phenylthiocarbamoyl-4-thiophen-2-yl-6,7-dihydro-5H-1-thia-6,8-diaza-s-indacene-2-carboxylic acid amide]: above 10 µM. Same read-out and setting: next, `NC(=O)c1sc2nc3c(c(-c4cccs4)c2c1N)CN(C(=S)NCC1CCCO1)C3` (stereo not shown) [Compound 80, 3-Amino-6-[(tetrahydro-furan-2-ylmethyl)-thiocarbamoyl]-4-thiophen-2-yl-6,7-dihydro-5H-1-thia-6,8-diaza-s-indacene-2-carboxylic acid amide]: above 10 µM; `NC(=O)c1sc2nc3c(c(-c4cccs4)c2c1N)CN(C(=S)NC1CCCC1)C3` [Compound 81, 3-Amino-6-cyclopentylthiocarbamoyl-4-thiophen-2-yl-6,7-dihydro-5H-1-thia-6,8-diaza-s-indacene-2-carboxylic acid amide]: 1 to 10 µM. For `CCCCNC(=S)N1Cc2nc3sc(C(N)=O)c(N)c3c(-c3cccs3)c2C1` [Compound 82, 3-Amino-6-butylthiocarbamoyl-4-thiophen-2-yl-6,7-dihydro-5H-1-thia-6,8-diaza-s-indacene-2-carboxylic acid amide], the concentration giving a half-maximal response (EC50) under setting [1] lay in the range of 1 to 10 µM. On to `Cc1ccc(NC(=S)N2Cc3nc4sc(C(N)=O)c(N)c4c(-c4cccs4)c3C2)cc1` [Compound 83, 3-Amino-4-thiophen-2-yl-6-p-tolylthiocarbamoyl-6,7-dihydro-5H-1-thia-6,8-diaza-s-indacene-2-carboxylic acidamide], for which the EC50 under setting [1] is above 10 µM.

With `NC(=O)c1sc2nc3c(c(-c4cccs4)c2c1N)CN(C(=S)NCc1ccccc1)C3` [Compound 84, 3-Amino-6-benzylthiocarbamoyl-4-thiophen-2-yl-6,7-dihydro-5H-1-thia-6,8-diaza-s-indacene-2-carboxylic acid amide], the EC50 (read-out: EC50 (antiviral activity), HBV-transduced HepG2 cells, three days with compound, viral DNA by ELISA) was in the range of 1 to 10 µM. `COc1cccc(NC(=S)N2Cc3nc4sc(C(N)=O)c(N)c4c(-c4cccs4)c3C2)c1` [Compound 85, 3-Amino-6-(3-methoxy-phenylthiocarbamoyl)-4-thiophen-2-yl-6,7-dihydro-5H-1-thia-6,8-diaza-s-indacene-2-carboxylic acid amide]: the EC50 under setting [1] is above 10 µM.

What is called EC50 is the concentration giving half of the maximal effect.
